Laboratory results taken from publication PMC6895912 (Cancers, 2019).
Several values for one entry are separate records, joined by “and”; a condition that tells them apart may be missing. Identical values can stand only once.

Test system: CWR22Rv1 xenografts
Test: Antitumor efficacy in castration-resistant CWR22Rv1 xenograft model
Assay type: in vivo, male NOD SCID mice
Conditions: 5 days/week, 16 days
Experimental: Following the in vitro studies and determination of the PK parameters, we then investigated the relative efficacy. Gal and the NGGAs in vivo using difficult-to-treat castration-resistant CWR22Rv1 xenografts. Given the enhanced IP and PO PK parameters of VNPP414 and VNPP433-3β over Gal, we decided to use lower doses of the new analogs compared to the previous Gal doses (200 mg/kg, IP/PO). Gal (200 mg/kg) served as positive control, while ENZ (25 mg/kg) administered PO was used as negative control. Male NOD SCID mice bearing CWR22Rv1 tumors were treated with vehicle, ENZ, Gal, VNPP414, and VNPP433-3β for 16 days as described in the Methods and Materials Section. […] In contrast, Gal and the NGGAs caused statistically significant tumor growth inhibition (TGI). […] It is notable that VNPP433-3β (at 7.5- and 15-fold lower molar doses) and VNPP414 (at 4-fold lower molar dose) are more efficacious than Gal. In general, no host toxicities were observed, as monitored by changes in animal body weight (Figure 7C).
Figure 7 Effects of Gal, NGGAs and ENZ in an in vivo castration-resistant prostate cancer model. (A) Mice bearing CWR22Rv1 xenografts (5 mice per group) were treated with vehicle, Gal (100 mg/kg/twice daily), VNPP414 (60 mg/kg, once daily), VNPP433-3β (15 or 30 mg/kg, once daily) and ENZ (25 mg.kg, once daily) 5 days per week for 16 days. Tumor volumes were measured twice a week and the tumors were collected. Tumor growth inhibition (TGI) values are indicated at the right of each growth curve, and the error bars are the SEM. Results are represented as means ± SEM. ^# p = ns (not significant vs. vehicle), ^$ p < 0.0272 vs. vehicle, * p < 0.0035 vs. vehicle, ** p < 0.0025 vs. vehicle and *** p < 0.0008 vs. vehicle. (B) Photographed tumors from each group. (C) Mean body weights of mice determined during the study. (D) Western blot analyses of tumor samples from each experimental group at day 16. […] It is left out because vehicle is a control, not a substance.
Male NOD SCID mice 5–6 weeks of age were obtained from University of Maryland School of Medicine Veterinary Resources (Baltimore, MD, USA. Mice were housed under complete aseptic conditions, fed autoclaved pellets and sterile water ad libitum. Following a week of acclimatization, approximately 5 × 10^6 CWR22Rv1 cells were inoculated one flank f mice. Tumor-bearing mice (tumor volume around ~100 mm^3) were randomized into 6 groups (5 mice in each group; compounds formulated in vehicle) and treated as follows: (i) vehicle control (40% β-cyclodextrin in saline, PO.), (ii) ENZ (25 mg/kg, PO, once daily), (iii) Gal (100mg/kg, PO, twice daily), (iv) VNPP414 (60 mg/kg, PO, once daily), (v) VNPP433-3β (15 mg/kg, PO, once daily), and (vi) VNPP433-3β (30 mg/kg, PO, once daily) for 5 days/week. Tumors were measured twice weekly with calipers and tumor volume was calculated by the formula: length × width^2 × 0.5 (mm^3). Animals were also weighed weekly and monitored for general health status and signs of possible toxicity due to treatments. Mice were sacrificed after the indicated periods of treatment and tumors excised. Tumors were divided and either flash frozen in liquid nitrogen or placed in 10% buffered formalin for western blot analysis.

SMILES: C[C@]12CC[C@H](O)CC1=CC[C@@H]1[C@@H]2CC[C@]2(C)C(n3cnc4ccccc43)=CC[C@@H]12 [Galeterone]
- tumor growth inhibition (TGI) (200 mg/kg (100 mg/kg PO twice daily), listed as Gal): 47% and 46.5%

SMILES: C[C@]12CC[C@H](OCc3ccncc3)CC1=CCC1C2CC[C@]2(C)C(n3cnc4ccccc43)=CCC12 (stereo partly shown) [VNPP414]
- tumor growth inhibition (TGI) (60 mg/kg PO once daily): 62.8%

SMILES: C[C@]12CC[C@H](n3ccnc3)CC1=CCC1C2CC[C@]2(C)C(n3cnc4ccccc43)=CCC12 (stereo partly drawn) [VNPP433-3β]
- tumor growth inhibition (TGI) (15 mg/kg PO once daily): 60.5%
- tumor growth inhibition (TGI) (30 mg/kg PO once daily): 84% and 83.7%
